The values below come from patent US20240368096A1 (Enanta Pharmaceuticals, Inc., priority 2022, published 2024).

The subject of this assay is HBV. Briefly: HBV infection in HepG2-NTCP cells (HBeAg AlphaLISA in supernatants). The assay is classed as cell-based. The settings on record: Hepatitis B virus, 192 h; HBV infection of HepG2-NTCP cells; HBeAg in supernatants at day 8 post infection; read-out: Cellular EC50. How it is done: HepG2-NTCP A3 cells were maintained in DMEM media supplemented with GlutaMAX™ 10% fetal bovine serum, 1% penicillin/streptomycin, and 5 μg/mL puromycin at 37° C. in a humidified atmosphere with 5% CO2 in a collagen-coated tissue culture flask.
HepG2-NTCP cells were seeded in 384 well plate containing 16,000 cells/well two days prior to the infection. On the day of infection, compounds were 3-fold serially diluted in DMSO and pre-incubated with HepG2-NTCP cells for two hours before purified HBV addition. HBV infection was carried out at 2000 GE/cell with 4% PEG, and the final concentration of DMSO is 0.5%. On day one post infection, HBV-containing media was aspirated, cells were washed once with PBS and then maintained in 2.5% DMSO containing media for the remainder of the assay.
Supernatants from infected HepG2-NTCP cells were collected at day 8 post infection, and the amount of viral antigen HBeAg was measured by HBeAg AlphaLISA detection kit (PerkinElmer) following the manufacturer's recommended protocol. Irrespective of readout, compound concentrations that reduce viral product accumulation in supernatants by […] relative to DMSO controls (EC50) are reported. EC50 ranges are as follows: A<0.1 μM; B 0.1-1 μM; C>1 μM.
(In general: In Alpha technology, singlet oxygen from a donor bead excites a nearby acceptor bead.)

For orientation: pEC50 means the EC50 on a negative log10 scale, so that one unit is a factor of ten.

pEC50: −log10 of the molar value.

In the case of `CN1[C@H](C2CCCCC2)CN(c2ccccc2)c2cc(Cl)c(-c3ccc(OC(F)(F)F)c(C(=O)O)c3)cc2S1(=O)=O` [Example 174], the pEC50 is 6.00 to 7.00.
With `CN1[C@H](c2cccc(F)c2)CN(c2ccccc2)c2cc(Cl)c(-c3ccc(F)c(C(=O)O)c3)cc2S1(=O)=O` [Example 55], the pEC50 was 6.00 to 7.00.
As for `CN1[C@H](C2CCCCC2)CN(c2ccccc2)c2cc(Cl)c(-c3ccc(C(=O)O)c(C(=O)O)c3)cc2S1(=O)=O` [Example 213, (R)-4-(7-chloro-3-cyclohexyl-2-methyl-1,1-dioxido-5-phenyl-2,3,4,5-tetrahydrobenzo[f][1,2,5]thiadiazepin-8-yl)phthalic acid], the negative logarithm of the EC50 (pEC50) was 6.00 to 7.00.
For `O=C(O)c1cc(-c2cc3c(cc2F)N(c2ccccc2)CC2c4ccccc4CN2S3(=O)=O)ccc1F` (centres unmarked) [Example 4], the pEC50 is 6.00 to 7.00.
With `CCCCCCCOc1cc2c(cc1-c1cc(F)c(C(=O)O)s1)S(=O)(=O)N(C)[C@H](C1CCCCC1)CN2c1ccccc1` [Example 485], the pEC50 is > 7.00.
`CN1[C@H](C2CCCCC2)CN(c2ccccc2)c2cc(OCc3ccco3)c(-c3ccc(F)c(C(=O)O)c3)cc2S1(=O)=O` [Example 334]: the pEC50 was > 7.00.
For `CN1[C@H](C2CCCCC2)CN(c2ccccc2)c2cc(Cl)c(-c3nc(C(=O)O)co3)cc2S1(=O)=O` [Example 131, (R)-2-(7-chloro-3-cyclohexyl-2-methyl-1,1-dioxido-5-phenyl-2,3,4,5-tetrahydrobenzo[f][1,2,5]thiadiazepin-8-yl)oxazole-4-carboxylic acid], the pEC50 is 6.00 to 7.00.
In the case of `O=C(O)c1cccc(-c2cc3c(cc2Cl)N(c2ccccc2)CC2CC4(CC4)CN2S3(=O)=O)c1` (centres unmarked) [Example 57], the pEC50 was 6.00 to 7.00.
With `CCCCCOC(=O)Nc1cc(-c2cc3c(cc2Cl)N(c2ccccc2)C[C@@H](C2CCCCC2)N(C)S3(=O)=O)sc1C(=O)O` [Example 247], the pEC50 is > 7.00.
The value for `CN1C(CC(F)(F)F)CN(c2ccccc2)c2cc(Cl)c(-c3ccc(F)c(C(=O)O)c3)cc2S1(=O)=O` (centres unmarked) [Example 69] was < 6.00.
In the case of `CN1[C@H](C2CCCCC2)CN(c2ccccc2)c2cc(Cl)c(-c3ccc(NS(=O)(=O)CC4CCC4)c(C(=O)O)c3)cc2S1(=O)=O` [Example 272], the negative logarithm of the EC50 (pEC50) is > 7.00.
For the compound `CN1[C@H](C2CCCCC2)CN(c2ccccc2)c2cc(OC3CC(C)(C)C3)c(-c3ccc(F)c(C(=O)O)c3)cc2S1(=O)=O` [Example 375], the negative-log EC50 (pEC50) was > 7.00.
Take `CC(C)OCCOc1cc2c(cc1-c1cc(F)c(C(=O)O)s1)S(=O)(=O)N(C)[C@H](C1CCCCC1)CN2c1ccccc1` [Example 497]: the pEC50 is > 7.00.
`CN1[C@H](C2CCCCC2)CN(c2ccccc2)c2cc(O[C@H]3C[C@@H](C#N)C3)c(-c3ccc(F)c(C(=O)O)c3)cc2S1(=O)=O` [Example 382]: the negative logarithm of the EC50 (pEC50) is > 7.00.
Turning to `CN1[C@H](C2CCCCC2)CN(c2ccccc2)c2cc(OCCc3ccsc3)c(-c3ccc(F)c(C(=O)O)c3)cc2S1(=O)=O` [Example 346], the pEC50 is 6.00 to 7.00.
Regarding `CN1C(C23CC(C(F)(F)F)(C2)C3)CN(c2ccccc2)c2cc(Cl)c(-c3ccc(F)c(C(=O)O)c3)cc2S1(=O)=O` (centres unmarked) [Example 87], the pEC50 is 6.00 to 7.00.
Turning to `CN1[C@H](C2CCCCC2)CN(c2ccccc2)c2cc(C3CC(F)(F)C3)c(-c3ccc(F)c(C(=O)O)c3)cc2S1(=O)=O` [Example 589], the pEC50 was > 7.00.
As for `CC(C)COC(=O)Nc1c(Cl)cc(-c2cc3c(cc2Cl)N(c2ccccc2)C[C@@H](C2CCCCC2)N(C)S3(=O)=O)cc1C(=O)O` [Example 279], the pEC50 is > 7.00.
To `Cc1nc(COc2cc3c(cc2-c2cc(F)c(C(=O)O)s2)S(=O)(=O)N(C)[C@H](C2CCCCC2)CN3c2ccccc2)sc1C` [Example 500] belongs > 7.00; to `Cc1ccc(C(=O)O)c(C)c1-c1cc2c(cc1Cl)N(c1ccccc1)C[C@@H](C1CCCCC1)N(C)S2(=O)=O` [Example 146, 3-((3R)-7-chloro-3-cyclohexyl-2-methyl-1,1-dioxido-5-phenyl-2,3,4,5-tetrahydrobenzo[f][1,2,5]thiadiazepin-8-yl)-2,4-dimethylbenzoic acid], < 6.00.
